Melting point data for 88 molecules are collected here from a melting point compilation (Tetko et al.; mined from patent text by program, amines drawn as free bases though some values may be those of a salt).

On to `CC(C)(C)SC1CC(=O)N1CC(=O)OCc1ccc([N+](=O)[O-])cc1` (stereo not drawn), for which the melting point (as a rule, the temperature of the solid-liquid transition) lay within 82.5 to 84 °C.

With `COC(=O)c1n[nH]c2nc(N3CCN(C)CC3)ccc12`, the melting point is 230 to 231 °C. Molecule `COc1ccc(N2CCN(c3ccc(N(C)C4=NC(C)(C)CS4)cc3)CC2)cc1` registered a melting point of 167 °C. For the molecule `O=C(O)c1sc(-c2cccnc2)nc1C(F)(F)F`, the melting point amounted to 209 °C.

`CCc1nc(SC)nn1-c1ccc(N)cc1` registered a melting point of 132 °C. With `COC1=C(OC)C(=O)C(CCCCCC[C@H]2CC[C@H](O)CC2)=C(C)C1=O` the figure was 33.5 to 35.5 °C; with `CCOC(=O)c1ccc(CNC(=O)CCl)cc1O`, 120 to 121 °C. With `Nc1ncc(-c2ccccc2)nc1Sc1ccccc1` the figure was 109 to 112 °C; with `NCCCC(O)c1ccccc1` (stereo not drawn), 94 to 96 °C; with `COc1ccc(C2SCc3c(sc(N)c3C(=O)c3ccc(Cl)cc3)S2)cc1` (stereo not drawn), 158 to 160 °C. With `CCN(CC)C(=O)N1CCC(C(O)(c2ccc(Cl)cc2)c2ccc(Cl)cc2)CC1` the figure was 172 to 175 °C. `NNC(=S)NCc1ccc([N+](=O)[O-])cc1` showed a melting point of 196 to 198 °C. With `CN(C(=O)c1ccc(N2CCOCC2)cc1)[C@@H]1CCN(C(=O)C2CCN(C(=O)C3(O)CC3)CC2)C[C@H]1c1ccc(Cl)c(Cl)c1` the figure was 151 to 153 °C; with `CC(=O)OCC1OC(n2ccc3c(F)cccc32)C(OC(C)=O)C(OC(C)=O)C1OC(C)=O` (stereo not drawn), 132 to 135 °C. Molecule `O=C(NCC1CCCCC1)NCC1CCCCC1` yielded a melting point of 150 to 152 °C. With `CC(C)NCC(O)COc1ccc(NC(=O)N(C)C)cc1` (stereo not drawn) the figure was 138 to 139 °C; with `Cc1ccc(-c2nccc3c(C#N)cccc23)cc1`, 132 °C; with `CC(C)(C)OC(=O)Nc1ccc(Cl)c(O)c1`, 103 to 106 °C. For the molecule `CC(=O)c1ccc2[nH]c3ccc(C(C)=O)cc3c2c1`, the melting point came to 241 °C. The same measure for `CSc1ccc(C(O)(c2ccc(Cl)cc2)C2CCN(CCO)C2=O)cc1` (stereo not drawn): 141 °C. The same measure for `c1ccc(Nc2ncc3ccncc3n2)cc1`: 161 °C; for `CC(C(=O)N1CCCC(C)(C)C1)N(C(=O)CN1C(=O)c2ccccc2C1=O)c1ccccc1` (racemic): 171 °C; for `CC(C)(C)CC1(C)CC(C)(C)c2ccc(O)cc21` (stereo not drawn): 102 °C. The same measure for `CC(C)CCc1cc2nnc(-c3ccccc3F)n2nc1OCc1ncnn1C`: 103 to 105 °C; for `CC(O)c1cc(NC(=O)OC(C)(C)C)ccc1NC(=O)OC(C)(C)C` (stereo not drawn): 189 °C; for `CCOc1nc2c(nc1C(=O)O)c(C)nn2CC`: 172 °C. Regarding `CC1(C)CCOc2cc(C(=O)O)ccc21`, the melting point lay within 173 to 174 °C. With `COc1cc(OC)c(-c2cc3ccccc3s2)cc1/C=C/C(=O)c1ccc(C(=O)NC(C)=O)cc1` the figure was 228 to 229 °C; with `COc1ccc(OC)c(Nc2nc(-c3cccc([N+](=O)[O-])c3)cs2)c1`, 154 °C; with `CCCOCCOc1ccc(OCC(O)CNCCNc2cc(=O)n(C)c(=O)n2C)cc1` (stereo not drawn), 125 °C. The same measure for `c1ccc(Nc2nc3ccccc3n3cc(-c4ccccc4)cc23)cc1`: 172 °C; for `Cc1cc2nc3c4cc(N)ccc4n(CCN(C)C)c3nc2cc1C`: 250 to 251 °C.

`O=C(O)CCC(=O)c1cccc(Cl)c1`: the melting point was 105 to 107 °C. With `CC(=O)OC1C(NC(=O)c2ccc(C(F)(F)F)cc2)c2sc(C(C)=O)cc2OC1(C)C` (stereo not drawn) the figure was 225 to 227 °C. With `O=[N+]([O-])c1ccc2c(c1)C=C(N1CCN(Cc3ccc4c(c3)OCO4)CC1)c1ccccc1S2` the figure was 188 to 190 °C.

In turn, `COc1ccc(C(=O)N[C@@H](Cc2c[nH]c3ccccc23)C(=O)O)cc1` came in with a melting point of 63 to 65 °C. On to `CCc1c(C(=O)NN2CCCCC2)nn(-c2ccc(Cl)cc2Cl)c1-c1ccc(Br)cc1`, for which the melting point fell in the range of 112 to 115 °C. With `COCc1nc(N)nc(N)c1-c1cc(Cl)cc(Cl)c1Cl` the figure was 265 to 268 °C; with `Nc1cc(OCc2ccccc2)cc(OCc2ccccc2)c1`, 77 to 80 °C. The same measure for `N[C@@]1(C(=O)O)C[C@H](NC(=O)Nc2ccccc2Cl)[C@H]2[C@H](C(=O)O)[C@H]21` (relative stereo): greater than 250 °C; for `O=c1cc(NCCNCCOc2cccc3c2OCCO3)cn[nH]1`: 81 to 83 °C. With `c1ccc(-c2cc(-c3ccc4c(c3)OCO4)cc(OCCCCCc3nnn[nH]3)n2)cc1` the figure was 150 °C. In turn, `CC(C)(N)c1ccc(-c2nc(Nc3ccc(-n4ccnc4)cc3)ncc2C#N)cc1` came in with a melting point of 232 to 233 °C. With `Cc1ccn(-c2ccc(Oc3ccc(F)cc3)cc2)n1` the figure was 80 to 81 °C; with `CCOC(=O)CC(=O)N1C(C(=O)OC(C)(C)C)CCCN1C(=O)OCc1ccccc1` (stereo not drawn), 45 to 47 °C. The molecule `Cc1c(Sc2ccc(Cl)cc2)nn(-c2ccc(Cl)cc2)c(=O)c1C#N` came in with a melting point of 177 to 179 °C. The same measure for `CC1CCCCC1N(Cc1ccc(C(=O)NC(C)(C)C(=O)O)cc1)S(=O)(=O)c1ccc(C(F)(F)F)nc1` (stereo not drawn): 131 to 132 °C; for `O=c1cc(C(F)(F)F)ncn1-c1c(Cl)cc(C(F)(F)F)cc1[N+](=O)[O-]`: 149 to 150 °C.

`N#Cc1ccc(NCCO)c([N+](=O)[O-])c1` came in with a melting point of 132 to 134 °C. With `COc1cc(OC(C)C)ccc1/C=C/c1cc(/C=C/c2ccc3cc[nH]c3c2)n[nH]1` the figure was 107 to 113 °C; with `CC(C)c1ccc(C(=O)Cc2ccccc2C(F)(F)F)c(C(C)C)c1OS(N)(=O)=O`, 144 to 149 °C. Molecule `Cc1nc(N2CCN(CCCc3ccccc3)C2=O)sc1C(=O)NCc1cccnc1` returned a melting point of 127 to 128 °C.

`CN1CC(O)N(c2nnc(SCc3cccs3)s2)C1=O` (stereo not drawn): the melting point is 129 to 132 °C. With `CCS(=O)(=O)N(Cc1cccnc1)c1ccc(F)cc1F` the figure was 91 to 92 °C; with `N#Cc1ccc(NC(=O)N[C@@H]2C[C@@H]2c2c(F)cccc2Cl)nc1` (relative stereo), 189 °C.

For the molecule `COc1ccc(-c2ccc3[nH]c(C(=O)O)cc3c2)cc1`, the melting point was greater than 230 °C. Turning to `Cn1cc(-c2cccc(C(F)(F)F)c2)c(=O)n1-c1cccc(C(F)(F)F)c1`, the melting point was 110 to 111 °C. As for `O=C1Nc2ccc(I)cc2C1=NNC(=O)C1CCN(C(=O)c2ccccc2)CC1`, the melting point turned out to be 160 °C. With `CCCCCCCCCC1C=CC(Oc2ccc(C(=O)O)o2)=C2N=C3CCCCC3=C21` (stereo not drawn) the figure was 130 to 132 °C; with `Cc1cccc(-c2[nH]c(C(C)C)nc2-c2ccc(F)c(-c3ccc(S(N)(=O)=O)cc3)c2)n1`, 245 to 246 °C; with `CC(=O)c1ccc(N)c2c1OCCO2`, 135 to 136 °C. The molecule `NC(=O)c1c(Cl)ccc(Br)c1F` registered a melting point of 157 to 158 °C. In turn, `CC(C)(C)c1ccc(Cn2ccc3cc(-c4ccc(C(C)(C)C)cc4)ccc32)cc1` had a melting point of 167 to 168 °C. The same measure for `COc1cc2c(cc1-c1ccccc1)c1cc(-c3ccccc3)c(OC)cc1n2CCC(C)CCCC(C)C` (stereo not drawn): 119 °C; for `CCCCc1nc2c(N)nc3cccnc3c2n1CCNC(=O)c1cc(C(C)(C)C)c(O)c(C(C)(C)C)c1`: 248 to 250 °C.

On to `O=C(NCCc1ccccc1)c1c(Cl)ccc2nc(N3CCC(C(=O)O)CC3)ccc12`, for which the melting point is 260 to 262 °C. The same measure for `NS(=O)(=O)c1ccccc1C(Cl)Cl`: 131 to 132 °C; for `COc1ccc(-c2cc(C(C)(C)C)c(O)c(C(C)(C)C)c2)cc1`: 109 to 110 °C; for `CCOC(=O)c1cn(-c2ccccc2)nc1OCc1ccc(OCc2nc(-c3ccccc3)oc2C)c(OC)c1`: 160 to 161 °C. The same measure for `CC(C)n1cnc2c(Cl)nc(I)nc21`: 104 °C; for `Cc1cc(C=NNC(N)=S)ncc1[N+](=O)[O-]`: 220 to 222 °C; for `CCOC(=O)C1=C(C)NC(=S)N(C(=O)OCC)C1c1ccccc1[N+](=O)[O-]` (stereo not drawn): 130 to 132 °C. With `CCN(CC)c1ccc(C2(c3c(C)n(CC)c4ccccc34)OC(=O)c3ccccc32)c(OC(C)C)c1` (stereo not drawn) the figure was 193 °C; with `COc1cc(COc2nn(-c3ccccc3)cc2C=O)ccc1OCc1coc(-c2ccco2)n1`, 162 to 163 °C. `Cc1[nH]cnc1CSCCO` had a melting point of 74 to 76 °C. The same measure for `CNC(=O)C1=CC(C)(C)Oc2ccc([N+](=O)[O-])cc21`: 166 to 168 °C; for `COc1ccc(Cn2c(=O)ccc3c(C)nc(N4CCC[C@H]4CO)nc32)cc1Cl`: 152 to 153 °C.

Turning to `CCOCc1cc2ccc(OCc3ccccc3)cc2o/c1=N\c1ccccc1`, the melting point was 94 to 95 °C.

The molecule `CC(C)(C)OC(=O)n1cc(C(=O)C=C(O)C2(C(=O)O)C=CC=CC2)c2ccccc21` (stereo not drawn) displayed a melting point of 138 to 141 °C.

In turn, `COC(=O)[C@H](CCCCNC(=O)OC(C)(C)C)NC(=O)c1ccccc1` came in with a melting point of 108 to 109 °C. Molecule `Cc1ccccc1-c1cn2ccc3ccccc3c2n1` came in with a melting point of 93 °C. The same measure for `Cc1ccsc1C(=O)Cc1ccccc1[N+](=O)[O-]`: 85 to 86.5 °C.

`CCc1nc2c(N)nc3cc(CCCN)ccc3c2n1CC1CCOCC1` showed a melting point of 217 to 220 °C.

`CC(CCC(=O)OCc1ccccc1)C1CC=C2C3=C(CCC21C)C1(C)CCC(O)C(C)(C)C1CC3` (stereo not drawn): the melting point lay in the range of 118 to 119 °C. In the case of `COc1ccc(Cc2nc(C#N)c[nH]2)cc1`, the melting point lay within 170 to 171 °C. With `C[C@H](Cn1ncnn1)n1cnc2cc3c(=O)n(C4CC4)cnc3cc2c1=O` the figure was 221 to 223 °C; with `NC(=O)C(N)Cc1ccc([N+](=O)[O-])cc1` (stereo not drawn), 160 to 162 °C; with `CON=C(C(=O)O)c1cccc(NC(=O)C(F)(F)F)n1`, 194 to 195 °C.
